Measured values as given in ChEMBL document CHEMBL1201862, “PubChem BioAssay data set” (2004).
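Briefly, cells in 96-well plates were exposed to five compound concentrations for 48 h, and endpoints were estimated by linear interpolation. GI50 is the concentration that inhibits growth by half.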 Calls of active or inactive are those of the source. No stated cut-off is given here; in the data, active = GI50 up to about 1.1 µM and inactive = higher.

What was measured:
Assay in all cases: inhibition of tumour cell growth, NCI panel, 48 h
HCT-116 = system: HCT-116
A549 = system: A549
TK-10 = system: TK-10
SK-OV-3 = system: SK-OV-3
IGROV-1 = system: IGROV-1
Malme-3M = system: Malme-3M
SR = system: SR
RXF 393 = system: RXF 393
SNB-19 = system: SNB-19
NCI-H460 = system: NCI-H460
OVCAR-4 = system: OVCAR-4
U-251 = system: U-251
OVCAR-5 = system: OVCAR-5
ACHN = system: ACHN
MOLT-4 = system: MOLT-4
LOX IMVI = system: LOX IMVI
NCI/ADR-RES = system: NCI/ADR-RES
MDA-MB-231 = system: MDA-MB-231
MDA-N = system: MDA-N
T47D = system: T47D

Measured: GI50

COc1cccc2[s+]snc12
inactive: HCT-116 45.4 µM | A549 77.6 µM | TK-10 > 100 µM | SK-OV-3 > 100 µM | IGROV-1 > 100 µM | Malme-3M > 100 µM | SR 22.2 µM | RXF 393 67 µM | SNB-19 50.6 µM | NCI-H460 68.4 µM | OVCAR-4 43.9 µM | U-251 > 10 µM | OVCAR-5 > 100 µM | ACHN 47.8 µM | MOLT-4 29.7 µM | LOX IMVI 33.6 µM

CCC(C)C(NC(=O)c1cccc2c(=O)c3ccccc3[nH]c12)C(=O)O (centres undefined)
inactive: HCT-116 > 100 µM | A549 98.9 µM | TK-10 > 100 µM | SK-OV-3 > 100 µM | IGROV-1 96.8 µM | Malme-3M > 100 µM | SR > 100 µM | SNB-19 99.5 µM | OVCAR-4 43.8 µM | NCI/ADR-RES > 100 µM | U-251 73.5 µM | MDA-MB-231 > 100 µM | OVCAR-5 > 100 µM | MDA-N > 100 µM | ACHN 86.7 µM | MOLT-4 82.6 µM | LOX IMVI > 100 µM

N#CC1CC(c2ccccc2)Nc2cc(Cl)ccc2N1 (centres undefined)
inactive: HCT-116 19.3 µM | A549 37.6 µM | TK-10 > 100 µM | SK-OV-3 > 100 µM | IGROV-1 69.7 µM | Malme-3M 24 µM | SR 14.3 µM | RXF 393 38.8 µM | SNB-19 > 50.5 µM | NCI-H460 35.4 µM | OVCAR-4 40.5 µM | U-251 30.7 µM | OVCAR-5 > 100 µM | ACHN 61.5 µM | MOLT-4 10.9 µM | LOX IMVI 33.1 µM

N#C/C(=C\NC(=S)Nc1ccc(S(=O)(=O)Nc2ccccn2)cc1)C(N)=O
inactive: HCT-116 > 100 µM | A549 > 100 µM | TK-10 > 100 µM | SK-OV-3 > 100 µM | IGROV-1 > 100 µM | Malme-3M > 100 µM | SR > 100 µM | RXF 393 > 100 µM | SNB-19 > 100 µM | NCI-H460 > 100 µM | OVCAR-4 > 100 µM | NCI/ADR-RES > 100 µM | U-251 > 100 µM | MDA-MB-231 > 100 µM | OVCAR-5 > 100 µM | MDA-N > 100 µM | ACHN > 100 µM | MOLT-4 25.5 µM | LOX IMVI > 100 µM

COC(=O)C1(C(=O)OC)CC(=O)c2c(OC(=O)c3cccc(OC)c3C#N)ccc(OC(=O)c3cccc(OC)c3C#N)c2C1
inactive: HCT-116 > 100 µM | A549 > 100 µM | TK-10 > 100 µM | SK-OV-3 > 100 µM | IGROV-1 > 100 µM | Malme-3M > 100 µM | SR 26.9 µM | RXF 393 > 100 µM | SNB-19 > 100 µM | NCI-H460 > 100 µM | OVCAR-4 > 100 µM | NCI/ADR-RES > 100 µM | U-251 > 100 µM | MDA-MB-231 > 100 µM | OVCAR-5 > 100 µM | MDA-N > 100 µM | ACHN > 100 µM | MOLT-4 > 100 µM | LOX IMVI > 100 µM

O=[N+]([O-])c1cccc([N+](=O)[O-])c1Cl
inactive: HCT-116 40.6 µM | A549 14.9 µM | TK-10 21.9 µM | IGROV-1 15.9 µM | Malme-3M 17.4 µM | SR 3.93 µM | RXF 393 17.7 µM | SNB-19 13.1 µM | T47D 2.96 µM | NCI-H460 23.3 µM | OVCAR-4 22.8 µM | NCI/ADR-RES 21.7 µM | U-251 11 µM | MDA-MB-231 21.2 µM | OVCAR-5 19.1 µM | ACHN 14.7 µM | MOLT-4 3.56 µM | LOX IMVI 1.35 µM

Oc1ccc2ccccc2c1/N=N/c1ccc(F)cc1
inactive: HCT-116 > 100 µM | A549 > 100 µM | TK-10 > 100 µM | SK-OV-3 > 100 µM | IGROV-1 > 100 µM | Malme-3M > 100 µM | SR > 100 µM | RXF 393 > 100 µM | SNB-19 > 100 µM | NCI-H460 > 100 µM | OVCAR-4 > 100 µM | U-251 > 100 µM | OVCAR-5 > 100 µM | ACHN > 100 µM | MOLT-4 > 100 µM | LOX IMVI > 100 µM

Cc1cc(OCc2nnc3sc(NC(=O)c4ccccc4)nn23)ccc1Cl
inactive: HCT-116 28.7 µM | A549 33.1 µM | TK-10 62.4 µM | SK-OV-3 59.6 µM | IGROV-1 25.4 µM | Malme-3M 21.4 µM | RXF 393 30.6 µM | SNB-19 33.9 µM | T47D 44.4 µM | NCI-H460 39.1 µM | OVCAR-4 > 100 µM | NCI/ADR-RES 37 µM | U-251 33.3 µM | MDA-MB-231 42.4 µM | OVCAR-5 56.8 µM | ACHN 20.5 µM | MOLT-4 55.5 µM | LOX IMVI 30.1 µM
